Earlier results as cited in patent publication US20070218480A1, “DETECTION AND DIAGNOSIS OF SMOKING RELATED CANCERS” (THE BOARD OF REGENTS OF THE UNIVERSITY OF TEXAS SYSTEM, priority 2006, published 2007).
Like-named read-outs stand apart in the source and are kept apart here.

Tests used:
[1] = stored at in a dry, airtight, light-resistant environment
[2] = mice

CC[C@@]1(O)C(=O)OCc2c1cc1n(c2=O)Cc2cc3ccccc3nc2-1 [Camptothecin]
storage stability [1]: at least two

COc1cc2ncnc(Nc3ccc(F)c(Cl)c3)c2cc1OCCCN1CCOCC1 [gefitinib]
objective response (OR) (NSCLC patients; HER2 FISH-negative (no or low gain) NSCLC patients treated with gefitinib): 6.4%
disease control rate (DCR) (NSCLC patients; HER2 FISH-negative patients): 33.3%
overall survival (OS) (NSCLC patients; HER2 FISH-negative patients): 8.4 months
time to progression (TTP) (NSCLC patients; HER2 FISH-negative patients): 2.7 months
objective response (OR) (NSCLC patients; HER2 FISH-positive (high copy number) NSCLC patients treated with gefitinib): 34.8%
disease control rate (DCR) (NSCLC patients; HER2 FISH-positive patients): 56.5%
overall survival (OS) (NSCLC patients; HER2 FISH-positive patients): 20.8 months
time to progression (TTP) (NSCLC patients; HER2 FISH-positive patients): 9.05 months

Bleomycin
tissue distribution [2]: high concentrations of bleomycin are found in the skin, lungs, kidneys, peritoneum, and lymphatics
